This note sets out measurements from article PMC6628293, “Rhamnose Binding Protein as an Anti-Bacterial Agent—Targeting Biofilm of Pseudomonas aeruginosa” (Marine Drugs, 2019).

In this assay the target is T1, rHPLOE (recombinant hemolymph plasma lectin).
T1 construct: gene hpl; E. coli codon-optimised synthetic gene hplOE in pET-23a(+), BL21(DE3) with chaperones (pG-KJE8); His-tag kept; HisTrap purified
The assay can be described thus: competitive ELISA against coated PA14 biofilm extract. Details: species or system Tachypleus tridentatus. The settings on record: 0.1 uM rHPLOE; 37 °C, 1 h; competitor of binding to cell-free P. aeruginosa PA14 biofilm; one-site Ki fit. From the text:
competitive ELISA against coated PA14 biofilm extract on rHPLOE (recombinant hemolymph plasma lectin) | The inhibitory constant (Ki) of L-rhamnose to rHPLOE interaction with the biofilm
A general note: ELISA stands for enzyme-linked immunosorbent assay.

For `C[C@@H]1OC(O)[C@H](O)[C@H](O)[C@H]1O` (stereo partly drawn) [L-rhamnose], the Ki (in general, a dissociation constant, usually derived from enzyme kinetics or from competition with a known ligand) is 98 mM.
